The supplement of paper PMC12137928
Structures can show the parent of a compound that is named as a salt.

System: HCT116
Conditions: 72 h
In short: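 HCT116 cells were plated at 250 per well in 1536-well plates and allowed 5 h to attach. CellTiter-Glo luminescence was normalized to vehicle as 0% and positive control as -100%, followed by pattern correction. Four-parameter Hill fits provided IC50 and maximal efficacy.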

Compound	IC50 cell viability (ICRF193 0 nM) [µM]	IC50 cell viability (ICRF193 200 nM) [µM]
NCCC[C@H](NC(=O)[C@@H]1CCCN1C(=O)[C@@H]1CSSC[C@H](N)C(=O)N[C@@H](Cc2ccc(O)cc2)C(=O)N[C@@H](Cc2ccccc2)C(=O)N[C@@H](CCC(N)=O)C(=O)N[C@@H](CC(N)=O)C(=O)N1)C(=O)NCC(N)=O [ORNIPRESSIN]	> 45.8	> 45.8
NCCC[C@H](N)C(=O)O [ORNITHINE HYDROCHLORIDE]	> 45.8	> 45.8
CN1CCCN=C1/C=C/c1cccc(O)c1 [OXANTEL PAMOATE]	> 45.8	> 45.8
CNc1ncc(-c2ccc3c(=O)c(C(=O)O)cn(C4CC4)c3c2C)cc1C [OZENOXACIN]	> 45.8	> 45.8
CC1CC(=O)NN=C1c1ccc(NCC(C)(C)NCC(O)COc2cc(Cl)ccc2C#N)cc1 (stereo not given) [Oberadilol]	> 45.8	> 45.8
CNS(=O)(=O)C[C@H]1CC[C@H](N(C)c2[nH]cnc3nccc2-3)CC1 [Oclacitinib]	> 45.8	> 45.8
CCCCCCCCCCCCCCCCCC(=O)OCC(C)O (stereo not given) [Octadecanoic acid, monoester with 1,2-propanediol]	> 45.8	> 45.8
CCCCCCCCCCCCCCCCCC(=O)O [Octadecanoic acid]	> 45.8	> 45.8
CCCCCCCC(=O)O [Octanoic acid]	> 45.8	> 45.8
CCCCC(CC)COC(=O)C=Cc1ccc(OC)cc1 (stereo not given) [Octinoxate]	> 45.8	> 45.8
CCCCC(CC)COC(=O)C(C#N)=C(c1ccccc1)c1ccccc1 (stereo not given) [Octocrylene]	> 45.8	> 45.8
NCC(O)c1ccc(O)cc1 (stereo not given) [Octopamine]	> 45.8	> 45.8
COC(=O)CCCCC(CCSS/C(CCO)=C(/C)N(C=O)Cc1cnc(C)nc1N)SC(C)=O (stereo not given) [Octotiamine]	> 45.8	> 45.8
C[C@@H](O)[C@@H]1NC(=O)[C@H](CCCCN)NC(=O)[C@@H](Cc2c[nH]c3ccccc23)NC(=O)[C@H](Cc2ccccc2)NC(=O)[C@@H](NC(=O)[C@H](N)Cc2ccccc2)CSSC[C@@H](C(=O)N[C@H](CO)[C@@H](C)O)NC1=O [Octreotide acetate]	> 45.8	> 45.8
Cc1cc2c(s1)Nc1ccccc1N=C2N1CCN(C)CC1 [Olanzapine]	> 45.8	> 45.8
O=C(c1cc(Cc2n[nH]c(=O)c3ccccc23)ccc1F)N1CCN(C(=O)C2CC2)CC1 [Olaparib]	> 45.8	> 45.8
CCCc1nc(C(C)(C)O)c(C(=O)OCc2oc(=O)oc2C)n1Cc1ccc(-c2ccccc2-c2nnn[nH]2)cc1 [Olmesartan medoxomil]	> 45.8	> 45.8
CCCc1nc(C(C)(C)O)c(C(=O)O)n1Cc1ccc(-c2ccccc2-c2nnn[nH]2)cc1 [Olmesartan]	> 45.8	> 45.8
COc1ccc(CC(C)(C)NC[C@H](O)c2cc(O)cc3c2OCC(=O)N3)cc1 [Olodaterol]	> 45.8	> 45.8
CN(C)CC/C=C1/c2ccccc2COc2ccc(CC(=O)O)cc21 [Olopatadine hydrochloride]	> 45.8	> 45.8
Cc1[nH]c(=O)c(C#N)cc1-c1ccc2nccn2c1 [Olprinone]	> 45.8	> 45.8
O=C(O)c1cc(/N=N/c2ccc(O)c(C(=O)O)c2)ccc1O [Olsalazine sodium]	> 45.8	> 45.8
COC(=O)N[C@H](C(=O)N1CCC[C@H]1C(=O)Nc1ccc([C@@H]2CC[C@@H](c3ccc(NC(=O)[C@@H]4CCCN4C(=O)[C@@H](NC(=O)OC)C(C)C)cc3)N2c2ccc(C(C)(C)C)cc2)cc1)C(C)C [Ombitasvir]	> 45.8	> 45.8
COc1ccc2[nH]c([S+]([O-])Cc3ncc(C)c(OC)c3C)nc2c1 (stereo not given) [Omeprazole]	> 45.8	> 45.8
Cc1nccn1CC1CCc2c(c3ccccc3n2C)C1=O (stereo not given) [Ondansetron]	> 45.8	> 45.8
OCCN1CCN(CCCN2c3ccccc3C=Cc3ccccc32)CC1 [Opipramol dihydrochloride]	> 45.8	> 45.8
C[C@@H]1CN(c2c(F)c(F)c3c(=O)c(C(=O)O)cn(C4CC4)c3c2F)C[C@H](C)N1 [Orbifloxacin]	> 45.8	> 45.8
CCCCCCCCCCC[C@@H](C[C@@H]1OC(=O)[C@H]1CCCCCC)OC(=O)[C@H](CC(C)C)NC=O [Orlistat]	> 45.8	> 45.8
COc1cc(C)c(Cc2cnc(N)nc2N)cc1OC [Ormetoprim]	> 45.8	> 45.8
O=C(O)c1cc(=O)[nH]c(=O)[nH]1 [Orotic acid]	> 45.8	> 45.8
